Assay results published in article PMC5365648, “Pharmacokinetics of the Novel Echinocandin CD101 in Multiple Animal Species” (Antimicrobial Agents and Chemotherapy, 2017).
Starred links: 1 amine or outer side, 2 acyl side, 3 side chain; linkers in the order of their positions; H or OH if unused. Positions of bridges follow the written chain, without caps; N, C: chain ends. Non-standard residues stand in square brackets, D forms with d. Residues, ends and D or L forms follow the SMILES beside them. *: point of attachment. Orn(4R-OH,5R-OCH2CH2NMe3+) = C[N+](C)(C)CCO[C@@H](N[*:3])[C@H](O)C[C@H](N[*:1])C(=O)[*:2]; pTerphenylCO(4''-OnC5H11) = CCCCCOc1ccc(-c2ccc(-c3ccc(C(=O)*)cc3)cc2)cc1; hTyr(3S-OH,4S-OH) = N[C@H](C(=O)O)[C@H](O)[C@@H](O)c1ccc(O)cc1; Pro(3S-OH,4S-Me) = C[C@H]1CN[C@H](C(=O)O)[C@H]1O; Hyp = O=C(O)[C@@H]1C[C@@H](O)CN1

Assays:
[1] = ref [10], cited from earlier work
Experimental: The half-life of CD101 in human is about 3-fold longer (about 90 h) than that of anidulafungin (about 30 h) ([10]). It should be noted that 90 h is the effective half-life of CD101 (i.e., the half-life that covers the majority of the AUC), with a longer, later-phase half-life evident at lower concentration ...

[2] = Dog pharmacokinetics, i.v. bolus; settings: in vivo, iv, male beagle dogs, single 1.4 mg/kg slow i.v. bolus, plasma, LC-MS/MS, noncompartmental
Experimental: (§1) For each of the pharmacokinetic studies, whole-blood samples (K3EDTA as anticoagulant) were collected and centrifuged within 30 min of collection. The resulting plasma was harvested and stored at −20°C until analysis. Tissue samples were homogenized by a bead-based homogenizer following the addition of deionized water to excised tissue in a 2:1 (vol/wt) ratio and stored at −20°C until analysis. Prior to analysis, plasma or homogenized tissue samples were quenched with acetonitrile (3:1, acetonitrile-plasma or tissue ratio) containing an appropriate internal standard (isotopically labeled d9-CD101 [mouse and rat] or a structural analog [dog, monkey, and chimpanzee]). Plasma and tissue homogenate concentrations (quantified against calibration standards processed the same way) were determined by reverse-phase, gradient liquid chromatography with tandem mass spectrometric detection (LC-MS/MS) using an AB-SCIEX API 3200Q/4000 mass spectrometry system. Calibration standard ranges were the following: 0.400 (lower limit of quantitation, [LLOQ]) to 200 μg/ml (CD101, mouse), 0.040 (LLOQ) to 10 μg/ml (anidulafungin, mouse), 0.002 (LLOQ) to 10 μg/ml (CD101, rat), 0.005 (LLOQ) to 10 μg/ml (anidulafungin, rat), 0.050 (LLOQ) to 10 μg/ml (CD101, dog), 0.020 (LLOQ) to 10 μg/ml (anidulafungin, dog), 0.010 (LLOQ) to 10 μg/ml (CD101, monkey), 0.001 (LLOQ) to 10 μg/ml (anidulafungin, monkey), 0.015 (LLOQ) to 10 μg/ml (CD101, chimpanzee), and 0.015 (LLOQ) to 10 μg/ml (anidulafungin, chimpanzee). When necessary, dilutions with blank matrix were made for samples that quantified above the upper limit of quantitation. The methods used in the analysis were qualified as fit for purpose: calibration standards were matrix matched with the exception that human plasma calibration standards were used to analyze chimpanzee plasma samples due to the rarity of blank chimpanzee plasma, and, for each analytical batch, triplicate calibration standards were included at the beginning, approximately in the middle, and at the end of the batch. Following analysis, quantitation was carried out by a calibration curve comprising the analyte/internal standard area ratio versus concentration. Analytical batch acceptance followed the general guidance that triplicate standards/quality controls be within ±20% for accuracy (percentage of nominal concentration) and ≤20% for precision (percent coefficient of variation).
(§2) Pharmacokinetic parameters were calculated by noncompartmental analysis using Phoenix WinNonlin (version 6.3; Pharsight, Mountain View, CA) from either individual or mean (mouse) concentration-time profiles. An unpaired t test was used to compare mean exposures from male and female rats.

[3] = human plasma; ref [9]; cited from earlier work
From the text: In the case of brain concentrations, there was little difference across all the collection intervals. Given the relatively low concentrations and small differences across times, measured concentrations may reflect contamination from residual whole blood during the collec ...

[4] = Chimpanzee pharmacokinetics, i.v. infusion; type: in vivo, chimpanzees
Experimental: A single 1-mg/kg dose of CD101 or anidulafungin was administered by i.v. infusion (1 h) to female chimpanzees (n = 2/group), and blood samples (via peripheral vein) were drawn for plasma processing at the midpoint of infusion, at the end of infusion, at 2, 4, 8, 12, 24, 48, and 72 h postdose, and on days 5, 7, and 10 postdose.
as §1, §2

[5] = Mouse pharmacokinetics, i.p. injection; settings: in vivo, ip, female ICR (CD-1) mice, plasma, LC-MS/MS, noncompartmental from mean profile, n = 3/time point
Experimental: A single 1-mg/kg dose of CD101 or anidulafungin was administered by slow i.v. bolus (∼2 min) to male ICR (CD-1) mice (n = 3/group/time point). Blood samples (via cardiac puncture) were collected for plasma processing predose and at 0.083 (5 min), 0.5, 1, 4, 8, 24, 48, and 72 h postdose. PK profiles were generated based on mean results from the three animals sampled at each time point. In another study, a single 1-, 4-, or 16-mg/kg dose of CD101 was administered by i.p. injection to female ICR (CD-1) mice (n = 3/time point/dose), and blood samples (via cardiac puncture) were drawn for plasma processing at 1, 3, 6, 12, 24, 48, 72, and 96 h postdose.
as §1, §2

[6] = in vivo, iv, female chimpanzees, single 1 mg/kg i.v. infusion (1 h), plasma, LC-MS/MS, noncompartmental, n = 2

In the case of CCCCCOc1ccc(-c2ccc(-c3ccc(C(=O)N[C@H]4C[C@@H](O)[C@@H](OCC[N+](C)(C)C)NC(=O)[C@@H]5[C@@H](O)[C@@H](C)CN5C(=O)[C@H]([C@@H](C)O)NC(=O)[C@H]([C@H](O)[C@@H](O)c5ccc(O)cc5)NC(=O)[C@@H]5C[C@@H](O)CN5C(=O)[C@H]([C@@H](C)O)NC4=O)cc3)cc2)cc1 [CD101] ({pTerphenylCO(4''-OnC5H11)}-[Orn(4R-OH,5R-OCH2CH2NMe3+)]T[Hyp][hTyr(3S-OH,4S-OH)]T[Pro(3S-OH,4S-Me)]; lactam 1-C), the half-life in human ([1]; for CD101 the effective half-life (covers the majority of the AUC)) is listed as “about 90 h”, the “half-life in human, fold longer than anidulafungin” value [1] is listed as “about 3 fold” and the AUC(0-t) ([2]; n = 4) is listed as 48700 ng·h/mL. It also gave a Cmax ([2]; n = 4) of 1570 ng/mL, a Tmax ([2]; n = 4) of 4.98 min and a clearance ([2]; n = 4, read-out: CL (clearance)) of 0.301 mL/min/kg. For the same compound, the protein bound [3] was 98.7%, the “clearance fold lower than anidulafungin” value ([4]; chimpanzee, 1 mg/kg i.v. infusion, 0.06 versus 0.42 ml/min/kg, n = 2/group) was “over 7 fold” and the “t1/2 fold longer than anidulafungin” value ([4]; chimpanzee, 1 mg/kg i.v. infusion, 81 versus 30 h, n = 2/group) was 2.7 fold. For the same compound, the AUC(0-inf) [4, 6] was 302 µg·h/mL, the AUC(0-t) [4, 6] was 290 µg·h/mL and the Cmax [4, 6] was 7150 ng/mL. It also gave a Tmax [4, 6] of 1 h, a half-life [4, 6] of 3.36 days and a clearance ([4]; in vivo, iv, female chimpanzees, single 1 mg/kg i.v. infusion (1 h), plasma, LC-MS/MS, noncompartmental, n = 2, read-out: CL (clearance)) of 3.41 mL/h/kg. The Vd ([4]; in vivo, iv, female chimpanzees, single 1 mg/kg i.v. infusion (1 h), plasma, LC-MS/MS, noncompartmental, n = 2, read-out: Vss (volume of distribution at steady state)) was 0.4 L/kg, the AUC(0-inf) ([5]; single 1 mg/kg i.p.) was 88.9 µg·h/mL and the AUC(0-t) ([5]; single 1 mg/kg i.p.) was 59.6 µg·h/mL. The Cmax ([5]; single 1 mg/kg i.p.) was 3970 ng/mL, the Tmax ([5]; single 1 mg/kg i.p.) was 1 h and the half-life ([5]; single 1 mg/kg i.p.) was 2.96 days. It also gave an AUC(0-inf) ([5]; single 4 mg/kg i.p.) of 313 µg·h/mL, an AUC(0-t) ([5]; single 4 mg/kg i.p.) of 245 µg·h/mL and a Cmax ([5]; single 4 mg/kg i.p.) of 13600 ng/mL. It also gave a Tmax ([5]; single 4 mg/kg i.p.) of 1 h, a half-life ([5]; single 4 mg/kg i.p.) of 1.85 days and an AUC(0-inf) ([5]; single 16 mg/kg i.p.) of 1200 µg·h/mL. The AUC(0-t) ([5]; single 16 mg/kg i.p.) was 902 µg·h/mL, the Cmax ([5]; single 16 mg/kg i.p.) was 52000 ng/mL and the Tmax ([5]; single 16 mg/kg i.p.) was 1.67 h. It also gave a half-life ([5]; single 16 mg/kg i.p.) of 2.53 days.
